Publication PMC4189182 (Journal of cardiac failure, 2014)

Experiments:
[1] = human, in vivo
[2] = in vivo; cited from earlier work

Halflife [1]: 14.4 min | increase in Clearance associated with genotype at rs6798179 (MME) ([1]; iv): roughly 50% | increase in K associated with genotype at rs6798179 (MME) ([1]; iv): roughly 50% | range of Adjusted BNP Clearance ([1]; iv): 0.1 to 67 mL/min | range of BNP Clearance ([1]; iv): 0.027 to 7.25 mL/min | range of Half-life ([1]; iv): 6.6 to 56.4 min | range of K ([1]; iv): 0.002-9.7 | range of ΔBNP ([1]; iv): 14 to 7900 pg/mL | smaller change in BNP due to infusion associated with genotype at rs6798179 (MME) ([1]; iv): ~40%
Compound: CC[C@H](C)[C@@H]1NC(=O)[C@H](CCCNC(=N)N)NC(=O)[C@H](CC(=O)O)NC(=O)[C@H](CCSC)NC(=O)[C@H](CCCCN)NC(=O)[C@H](CCCNC(=N)N)NC(=O)CNC(=O)[C@H](Cc2ccccc2)NC(=O)[C@@H](NC(=O)CNC(=O)[C@H](CO)NC(=O)CNC(=O)[C@H](CCC(N)=O)NC(=O)[C@@H](NC(=O)[C@H](CCSC)NC(=O)[C@H](CCCCN)NC(=O)[C@@H]2CCCN2C(=O)[C@@H](N)CO)C(C)C)CSSC[C@@H](C(=O)N[C@@H](CCCCN)C(=O)N[C@H](C(=O)N[C@@H](CC(C)C)C(=O)N[C@@H](CCCN=C(N)N)C(=O)N[C@@H](CCCN=C(N)N)C(=O)N[C@@H](Cc2cnc[nH]2)C(=O)O)C(C)C)NC(=O)CNC(=O)[C@H](CC(C)C)NC(=O)CNC(=O)[C@H](CO)NC(=O)[C@H](CO)NC(=O)[C@H](CO)NC(=O)[C@H](CO)NC1=O [nesiritide]
previously reported average half-life [2]: roughly 18 minutes
